Reference: paper PMC10816263, “Thermophilic PHP Protein Tyrosine Phosphatases (Cap8C and Wzb) from Mesophilic Bacteria” (International Journal of Molecular Sciences, 2024)

What was measured:
Wzb = molecular target: T1, Wzb (Lacticaseibacillus rhamnosus, UniProt Q58Z13); assay: p-nitrophenol release, absorbance […] nm; assay type: biochemical; conditions: 5 mM pNPP, 0.25 µM enzyme, 1.0 mM Co2+ (also Ni2+ or Mn2+), 92 mM Tris-HCl pH 7.5, 75 °C, 15 min
T1 sequence (Q58Z13 1-254): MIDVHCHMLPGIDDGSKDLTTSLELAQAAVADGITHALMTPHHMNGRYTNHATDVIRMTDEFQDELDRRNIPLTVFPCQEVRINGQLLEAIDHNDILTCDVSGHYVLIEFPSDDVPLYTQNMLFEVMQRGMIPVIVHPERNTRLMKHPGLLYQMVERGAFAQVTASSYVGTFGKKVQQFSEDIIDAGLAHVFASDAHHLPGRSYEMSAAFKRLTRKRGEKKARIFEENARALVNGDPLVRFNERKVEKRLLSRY

Cap8C = Cap8C (Staphylococcus aureus, UniProt P72369); assay: p-nitrophenol release, absorbance […] nm; assay type: biochemical; conditions: 5 mM pNPP, 0.25 µM enzyme, 1.0 mM Co2+ (also Ni2+ or Mn2+), 92 mM Tris-HCl pH 7.5, 75 °C, 15 min
Sequence of Cap8C (P72369 entry or part of it): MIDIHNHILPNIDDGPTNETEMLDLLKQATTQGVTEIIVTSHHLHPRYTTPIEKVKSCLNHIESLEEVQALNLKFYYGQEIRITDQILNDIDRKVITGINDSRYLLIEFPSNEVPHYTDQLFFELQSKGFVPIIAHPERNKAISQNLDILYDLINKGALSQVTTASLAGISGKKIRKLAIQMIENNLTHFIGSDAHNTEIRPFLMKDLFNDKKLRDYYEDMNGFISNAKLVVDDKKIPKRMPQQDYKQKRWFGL

## O=[N+]([O-])c1ccc(OP(=O)(O)O)cc1 [p-nitrophenylphosphate]
Wzb
  p-nitrophenol release, absorbance 405 nm: Lactobacillus rhamnosus Wzb proteins were established to have phosphatase activity using pNPP as substrate
Cap8C
  p-nitrophenol release, absorbance 405 nm: Cap8C and Lactobacillus rhamnosus Wzb proteins were established to have phosphatase activity using pNPP
